IC50 data for nine compounds are collected here from patent publication US20260226029A1, “1-(1-Oxo-1,2-Dihydrophthalazin-6-yl)Cycloalkyl-1-Carboxamide Derivatives as MTA-Cooperative Inhibitors of PRMT5” (BeOne Medicines I GmbH, priority 2023, published 2026).

One experiment relates to HCT116-MTAP-KO. Nature of the experiment: Compounds cell killing in HCT116 isogenic pair (CellTiter-Glo, 6 days), MTAP-KO cells. Type of experiment: cell-based. As to conditions: Homo sapiens, HCT-116, 144 h, Cell Titer-Glo, 0-10 μM. The text has this: (§1) HCT116 cell line (ATCC, CCL-247) was isolated from the colon of an adult with colon cancer. It has a mutation in codon 13 of the ras proto-oncogene and can be used as a positive control for PCR assays of mutation in this codon. HCT116-MTAP-KO was knocked-out-MTAP-gene based HCT116, and a single clone was passed for this assay. HCT116-mock-RNA-KO was knocked-out-mock-gene based HCT116 with MTAP wildtype genotype. The base medium for HCT116 isogenic pair is RPMI 1640, HEPES (Gibco, 22400105). To make the complete growth medium, add the following components to the base medium: fetal bovine serum to a final concentration of 10% (Gibco, 10099-141C). The cell line was grown in a humidified 5% CO2 atmosphere at 37° C. and regularly tested for the presence of mycoplasma with MycoAlert™ PLUS Mycoplasma Detection Kit (Lonza, LT07-710).
(§2) • Seed HCT116-mock-RNA-KO (4E2/well) or HCT116-MTAP-KO (4E2/well) cells into a 96-well plate (Greiner: 655090), 100 µL/well. • Incubate at 37° C., 5% CO2, overnight. • Add 50 μL fresh growth-medium containing serial dilution of compounds for a final compound concentration of 0-10 μM to each well. • Incubate at 37° C., 5% CO2, 6 days. • The cell viability detected by Cell Titer-Glo (Promega, G7573). Add 70 μL of CellTiter-Glo® reagent in each well. • Incubate at room temperature for 10 minutes to stabilize luminescent signal. • Analyze with Microplate Reader (TECAN, SPARK) and fit IC50 using Prism® 9.
For orientation: Cellular ATP, detected with luciferase, serves as a proxy for viable cell number.

A further experiment deals with HCT116-mock-RNA-KO. Nature of the experiment: Compounds cell killing in HCT116 isogenic pair (CellTiter-Glo, 6 days), mock-KO (MTAP wildtype) cells. Type of experiment: cell-based. To be noted: Homo sapiens, HCT-116, 144 h, Cell Titer-Glo, 0-10 μM.
Text: as §1, §2

The IC50 is the concentration that inhibits the measured activity by half.

Where only a bound is given, the exact number is not on record here.

Take `COc1ccnc2c1CCCC2N(Cc1ccc(C(F)(F)F)cn1)C(=O)C1(c2ccc3c(=O)[nH]nc(CN)c3c2)CC1` (stereo not drawn) [Example 17, 1-(4-(aminomethyl)-1-oxo-1,2-dihydrophthalazin-6-yl)-N-(4-methoxy-5,6,7,8-tetrahydroquinolin-8-yl)-N-((5-(trifluoromethyl)pyridin-2-yl)methyl)cyclopropane-1-carboxamide]: the IC50 with HCT116-MTAP-KO is 253 nM; in the experiment with HCT116-mock-RNA-KO, greater than 10000 nM.

In the case of `NCc1n[nH]c(=O)c2ccc(C3(C(=O)N(Cc4ccc(-c5c(F)cccc5F)cn4)C4CCCc5cccnc54)CC3)cc12` (stereo not drawn) [Example 18, 1-(4-(aminomethyl)-1-oxo-1,2-dihydrophthalazin-6-yl)-N-((5-(2,6-difluorophenyl)pyridin-2-yl)methyl)-N-(5,6,7,8-tetrahydroquinolin-8-yl)cyclopropane-1-carboxamide], the IC50 in the experiment with HCT116-MTAP-KO amounted to 35 nM; in the experiment on HCT116-mock-RNA-KO, 2220 nM.

As for `NCc1n[nH]c(=O)c2ccc(C3(C(=O)N(Cc4ccc(-c5c(F)cccc5F)cn4)[C@@H]4CCCc5cccnc54)CC3)cc12` [Example 19A, (R)-1-(4-(aminomethyl)-1-oxo-1,2-dihydrophthalazin-6-yl)-N-((5-(2,6-difluorophenyl)pyridin-2-yl)methyl)-N-(5,6,7,8-tetrahydroquinolin-8-yl)cyclopropane-1-carboxamide], the IC50 in the experiment with HCT116-MTAP-KO stood at 17 nM; in the experiment on HCT116-mock-RNA-KO, 2230 nM.

As to `NCc1n[nH]c(=O)c2ccc(C3(C(=O)N(Cc4ccc(-c5c(F)cccc5F)cn4)[C@H]4CCCc5cccnc54)CC3)cc12` [Example 19B, (S)-1-(4-(aminomethyl)-1-oxo-1,2-dihydrophthalazin-6-yl)-N-((5-(2,6-difluorophenyl)pyridin-2-yl)methyl)-N-(5,6,7,8-tetrahydroquinolin-8-yl)cyclopropane-1-carboxamide], the IC50 is 848 nM with HCT116-MTAP-KO and greater than 10000 nM in the experiment on HCT116-mock-RNA-KO.

For the compound `NCc1n[nH]c(=O)c2ccc(C3(C(=O)N(Cc4ccc(Oc5ccccc5)cn4)C4CCCc5cccnc54)CC3)cc12` (stereo not drawn) [Example 20, 1-(4-(aminomethyl)-1-oxo-1,2-dihydrophthalazin-6-yl)-N-((5-phenoxypyridin-2-yl)methyl)-N-(5,6,7,8-tetrahydroquinolin-8-yl)cyclopropane-1-carboxamide], the IC50 was 215 nM in the experiment on HCT116-MTAP-KO and greater than 1000 nM in the experiment with HCT116-mock-RNA-KO.

In the case of `NCc1n[nH]c(=O)c2ccc(C3(C(=O)N(Cc4ccc(-c5c(F)cccc5F)cn4)C4CCCc5cccc(F)c54)CC3)cc12` (stereo not drawn) [Example 21, 1-(4-(aminomethyl)-1-oxo-1,2-dihydrophthalazin-6-yl)-N-((5-(2,6-difluorophenyl)pyridin-2-yl)methyl)-N-(8-fluoro-1,2,3,4-tetrahydronaphthalen-1-yl)cyclopropane-1-carboxamide], the IC50 was found to be 102 nM in the experiment on HCT116-MTAP-KO and 4010 nM in the experiment on HCT116-mock-RNA-KO.

In the case of `NCc1n[nH]c(=O)c2ccc(C3(C(=O)N(Cc4ccc(Br)cc4F)C4CCCc5cccnc54)CC3)cc12` (stereo not drawn) [Example 22, 1-(4-(aminomethyl)-1-oxo-1,2-dihydrophthalazin-6-yl)-N-(4-bromo-2-fluorobenzyl)-N-(5,6,7,8-tetrahydroquinolin-8-yl)cyclopropane-1-carboxamide], the IC50 in the experiment with HCT116-MTAP-KO amounted to 130 nM; in the experiment on HCT116-mock-RNA-KO it was 7370 nM.

Consider `Cc1n[nH]c(C)c1-c1ccc(CN(C(=O)C2(c3ccc4c(=O)[nH]nc(CN)c4c3)CC2)C2CCCc3cccnc32)nc1` (stereo not drawn) [Example 23, 1-(4-(aminomethyl)-1-oxo-1,2-dihydrophthalazin-6-yl)-N-((5-(3,5-dimethyl-1H-pyrazol-4-yl)pyridin-2-yl)methyl)-N-(5,6,7,8-tetrahydroquinolin-8-yl)cyclopropane-1-carboxamide], for which the figures for the IC50 with HCT116-MTAP-KO and with HCT116-mock-RNA-KO were 3990 nM and greater than 10000 nM, respectively.

For the compound `NCc1n[nH]c(=O)c2ccc(C3(C(=O)N(Cc4ccc(-c5c(F)cccc5F)cn4)C4CCC4)CC3)cc12` [Example 25, 1-(4-(aminomethyl)-1-oxo-1,2-dihydrophthalazin-6-yl)-N-cyclobutyl-N-((5-(2,6-difluorophenyl)pyridin-2-yl)methyl)cyclopropane-1-carboxamide], the IC50 was 3690 nM with HCT116-MTAP-KO and greater than 10000 nM in the experiment on HCT116-mock-RNA-KO.
